{"source": "the NIST ThermoML archive (doi:10.1016/j.fluid.2009.11.004)", "key": {"[1]": {"test": "refractive index (Na D-line) (dimensionless)", "conditions": "298.15 K; 101.33 kPa; Liquid; Standard Abbe refractometry"}, "[2]": {"conditions": "Liquid, Ebulliometric method (Recirculating still)"}}, "note": "Numbers after ± are expanded uncertainties."}
{"smiles": "Cc1ccccc1C", "note": "[1,2-dimethylbenzene]", "values": [{"measurement": "refractive index", "setting": "[1]", "result": "1.5028 ± 0.0007"}]}
{"smiles": "CCCC(C)C", "note": "[2-methylpentane]", "values": [{"measurement": "refractive index", "setting": "[1]", "result": "1.3685 ± 0.0007"}, {"measurement": "vapor or sublimation pressure", "setting": "[2]; 290.34 K", "result": "20.3 ± 0.4", "unit": "kPa"}, {"measurement": "vapor or sublimation pressure", "setting": "[2]; 299.7 K", "result": "30.13 ± 0.42", "unit": "kPa"}, {"measurement": "vapor or sublimation pressure", "setting": "[2]; 307.12 K", "result": "40.39 ± 0.46", "unit": "kPa"}, {"measurement": "vapor or sublimation pressure", "setting": "[2]; 312.92 K", "result": "50.23 ± 0.5", "unit": "kPa"}, {"measurement": "vapor or sublimation pressure", "setting": "[2]; 317.93 K", "result": "60.24 ± 0.54", "unit": "kPa"}, {"measurement": "vapor or sublimation pressure", "setting": "[2]; 322.26 K", "result": "70.13 ± 0.59", "unit": "kPa"}, {"measurement": "vapor or sublimation pressure", "setting": "[2]; 326.15 K", "result": "80.11 ± 0.64", "unit": "kPa"}, {"measurement": "vapor or sublimation pressure", "setting": "[2]; 329.74 K", "result": "90.32 ± 0.69", "unit": "kPa"}, {"measurement": "vapor or sublimation pressure", "setting": "[2]; 333.37 K", "result": "101.76 ± 0.72", "unit": "kPa"}]}
{"smiles": "Cc1ccsc1", "note": "[3-methylthiophene]", "values": [{"measurement": "refractive index", "setting": "[1]", "result": "1.5172 ± 0.0007"}]}
{"smiles": "CCCCCC", "note": "[hexane]", "values": [{"measurement": "refractive index", "setting": "[1]", "result": "1.3724 ± 0.0007"}]}
{"smiles": "CC1CCCCC1", "note": "[methylcyclohexane]", "values": [{"measurement": "vapor or sublimation pressure", "setting": "[2]; 325.39 K", "result": "20.25 ± 0.39", "unit": "kPa"}, {"measurement": "vapor or sublimation pressure", "setting": "[2]; 336.27 K", "result": "30.47 ± 0.4", "unit": "kPa"}, {"measurement": "vapor or sublimation pressure", "setting": "[2]; 344.1 K", "result": "40.07 ± 0.43", "unit": "kPa"}, {"measurement": "vapor or sublimation pressure", "setting": "[2]; 350.71 K", "result": "49.96 ± 0.47", "unit": "kPa"}, {"measurement": "vapor or sublimation pressure", "setting": "[2]; 356.44 K", "result": "60.05 ± 0.51", "unit": "kPa"}, {"measurement": "vapor or sublimation pressure", "setting": "[2]; 361.45 K", "result": "70.17 ± 0.55", "unit": "kPa"}, {"measurement": "vapor or sublimation pressure", "setting": "[2]; 365.75 K", "result": "79.96 ± 0.59", "unit": "kPa"}, {"measurement": "vapor or sublimation pressure", "setting": "[2]; 369.98 K", "result": "90.64 ± 0.63", "unit": "kPa"}, {"measurement": "vapor or sublimation pressure", "setting": "[2]; 373.9 K", "result": "101.6 ± 0.65", "unit": "kPa"}]}
{"smiles": "CC1CCCC1", "note": "[methylcyclopentane]", "values": [{"measurement": "refractive index", "setting": "[1]", "result": "1.4067 ± 0.0007"}, {"measurement": "vapor or sublimation pressure", "setting": "[2]; 300.4 K", "result": "20.25 ± 0.4", "unit": "kPa"}, {"measurement": "vapor or sublimation pressure", "setting": "[2]; 310.16 K", "result": "30.18 ± 0.41", "unit": "kPa"}, {"measurement": "vapor or sublimation pressure", "setting": "[2]; 317.69 K", "result": "40.24 ± 0.45", "unit": "kPa"}, {"measurement": "vapor or sublimation pressure", "setting": "[2]; 323.75 K", "result": "50.16 ± 0.49", "unit": "kPa"}, {"measurement": "vapor or sublimation pressure", "setting": "[2]; 328.97 K", "result": "60.22 ± 0.53", "unit": "kPa"}, {"measurement": "vapor or sublimation pressure", "setting": "[2]; 333.37 K", "result": "69.94 ± 0.58", "unit": "kPa"}, {"measurement": "vapor or sublimation pressure", "setting": "[2]; 337.5 K", "result": "80.18 ± 0.62", "unit": "kPa"}, {"measurement": "vapor or sublimation pressure", "setting": "[2]; 341.25 K", "result": "90.53 ± 0.68", "unit": "kPa"}, {"measurement": "vapor or sublimation pressure", "setting": "[2]; 345.1 K", "result": "102.31 ± 0.7", "unit": "kPa"}]}
